From article PMC11284088, “Synthesis and biochemical characterization of naphthoquinone derivatives targeting bacterial histidine kinases” (The Journal of Antibiotics, 2024)
Entries after “also recorded” stand apart in the source; their conditions may differ. Like-named read-outs stand apart in the source and are kept apart here.

Legend:
[1] = molecular target: T1, WalK (207-611, B. subtilis) (Bacillus subtilis, UniProt Q45614); test: Affinity selection/mass spectrometry, competition with waldiomycin; type: binding; design: key to AS/MS: AS/MS + competitive inhibition of the binding of waldiomycin to WalK; − increased binding of waldiomycin to WalK
T1 construct: His6 (N); made in house; host or cells: E. coli BL21(DE3)
Method: The affinity selection/mass spectrometry (AS/MS) is a method which can detect the binding of small compounds to proteins. This experiment was carried out following a previously established protocol (Fig. 5), with the exception of using Millipore 96-well filter plates (MSBVN1210) instead of MAHAN4510. In the experiment, 1 µM of WalK (207-611, B. subtilis, refer to Table S2) was combined and incubated with 5 µM of waldiomycin and competitor compounds in a reaction buffer. The buffer composition was as follows: 25 mM Tris-HCl (pH 8.0), 50 mM KCl, 50 mM NH4Cl, 5 mM MgCl2, 1 mM DTT, and 0.1% CHAPS. Following the incubation, the mixture was subjected to size-exclusion chromatography via centrifugation to eliminate free compounds. The protein that was eluted was then denatured by adding an equal volume of methanol/0.1% formic acid. The compounds that were subsequently released from the protein were detected using an LC/MS system. The concentrations of waldiomycin were calculated from the value of peak areas using calibration curve that covered the range of 1 nM to 1 µM (R^2 = 0.9991). The concentration of waldiomycin in the eluate of WalK and waldiomycin without competitor was 10.1 nM, and percentages to this value were calculated for other samples.

iseA (formerly yoeB) = test: RT-qPCR of iseA expression in B. subtilis cells; type: cell-based, B. subtilis 168; design: key to RT-qPCR: RT-qPCR + iseA gene expression was induced in B. subtilis 168; − no effect; details: for RT-qPCR: summary class, iseA gene expression in B. subtilis 168
Method: In brief, the cells were aerated and grown to an optical density at 660 nm of 0.3–0.4 at 37 °C. After the addition of DMSO or naphthoquinone derivatives, the cultures were further incubated for 5 min, cooled on ice for 1 min, and then harvested by centrifugation (2300 × g, 10 min, 4 °C). The cells were resuspended in 800 µl of RNA Lysis Buffer (SV Total RNA Isolation System, Z3100, Promega), transferred to a screw-capped tube containing 400 mg of glass beads (GB-01, TOMY), and disrupted using MicroSmash (MS-100, TOMY Medico) at 3000 rpm, 60 s ON/OFF for 6 cycles. RNA was then purified from 175 µl of the supernatant using the SV Total RNA Isolation System, followed by DNase I treatment (Turbo DNA-free^TM Kit, AM1907, Invitrogen) to remove any residual genomic DNA contamination. […] The expression levels of the genes were normalized using the 16S rRNA gene as an internal standard. Each assay was performed at least three times. Statistical analyses were conducted using Tukey’s multiple comparison test (GraphPad Prism 7).

WalK = molecular target: T2, WalK (Bacillus subtilis, UniProt Q45614); test: Inhibition of WalK autophosphorylation; type: biochemical; design: key to WalK: WalK + inhibitory effect against WalK; details: for IC50: against WalK from B. subtilis, autophosphorylation, N.I. = no inhibition; for inhibitory activity against WalK: in words; for WalK: summary class
T2 construct: His6 (N); made in house; host or cells: E. coli BL21(DE3)
Method: Autophosphorylation of WalK was conducted at 0.5 or 1 µM in a reaction mixture comprising 50 mM Tris-HCl (pH 8.5), 100 mM KCl, 5 mM MgCl2, 100 mM NH4Cl, 5% DMSO, and 40 µM ATP. The total reaction volume was 40 µl, and the incubation lasted for 30 min at 25 °C. To terminate the reaction, 40 µl of 2 × SDS-PAGE sample buffer was added, followed by a 10-min incubation at 37 °C. Subsequently, SDS-PAGE (10% acrylamide) was performed, and the samples were subjected to Western blotting using a PVDF membrane (Bio-Rad 1620177). The primary antibody used was anti-N3-phosphohistidine antibody (clone SC56-2) (EDM Millipore Corp), and the secondary antibody was goat anti-rabbit IgG-HRP (Abcam). A 2% bovine serum albumin (Sigma-Aldrich) solution served as the blocking reagent. Signals originating from phosphorylated HKs were detected using the HRP substrate (Immobilon Western Chemiluminescent HRP substrate, Millipore) and the Multi Imager II Multi Box (Bio Tools). Signal intensities were quantified with Image Analysis Software CS Analyzer 4 (ATTO). IC50 values (50% inhibitory concentrations) were determined using Prism 7 software (GraphPad).
In the assessment of naphthoquinone derivatives, the initial screening for inhibitory activity against WalK autophosphorylation was conducted at 50 or 100 µg ml^−1. Compounds displaying inhibitory activity were further examined to ascertain their IC50 values against WalK. For the chosen compounds, inhibition against EvgS, EnvZ, PhoQ, and CpxA HKs was also assessed. These reactions involved the use of 1 µM HK, 40 µM ATP, and a 30 min incubation at 25 °C.

B. subtilis 168 strain = test: MIC, standard microtiter broth dilution; type: cell-based, Bacillus subtilis; design: key to MIC: MIC + antibacterial activity against Bacillus subtilis 168; details: for antibacterial (antimicrobial) activity against B. subtilis: in words
Method: The minimum inhibitory concentrations (MICs) were determined using the standard microtiter broth dilution method, as recommended by the guidelines of the Clinical Laboratory Standards Institute.

[2] = B. subtilis 168 strain grown in LB broth at 37 °C for 18 h
[3] = Bacillus subtilis, B. subtilis 168 strain grown in LB broth at 37 °C for 18 h, read-out: MIC

T2 sequence (Q45614 207-611): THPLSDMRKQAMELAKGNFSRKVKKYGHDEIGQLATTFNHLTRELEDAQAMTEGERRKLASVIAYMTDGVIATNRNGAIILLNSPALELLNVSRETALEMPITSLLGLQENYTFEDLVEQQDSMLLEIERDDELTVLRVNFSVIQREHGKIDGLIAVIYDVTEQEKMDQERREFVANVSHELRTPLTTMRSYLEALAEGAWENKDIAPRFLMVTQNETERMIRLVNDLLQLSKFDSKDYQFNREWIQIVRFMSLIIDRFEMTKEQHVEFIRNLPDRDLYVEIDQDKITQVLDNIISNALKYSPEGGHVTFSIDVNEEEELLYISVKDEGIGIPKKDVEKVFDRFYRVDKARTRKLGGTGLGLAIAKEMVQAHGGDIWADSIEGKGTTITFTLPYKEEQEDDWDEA
T1 sequence (Q45614 207-611): as above

SMILES	IC50 (WalK; read-out: IC50)	inhibitory activity against WalK (WalK)	MIC (B. subtilis 168 strain; [2])	antibacterial (antimicrobial) activity against B. subtilis (B. subtilis 168 strain)	IC50 (WalK)	also measured
O=C1C(Cl)=C(N2CCNCC2)C(=O)c2c(O)ccc(O)c21 [2a, 2-chloro-5,8-dihydroxy-3-(piperazin-1-yl)naphthalene-1,4-dione]	32.4 µM	weaker				effect on the signal of waldiomycin ([1]; compound 30 and 100 µM, in words): reduced the signal of waldiomycin in a dose-dependent manner; signal of waldiomycin compared to only waldiomycin with WalK ([1]; compound at 100 µM, waldiomycin 5 µM, WalK 1 µM): about 10%; binding to WalK competitive with that of waldiomycin ([1]; in words): competitive; also recorded: competitively interacted with waldiomycin; RT-qPCR (iseA (formerly yoeB)): +; WalK (WalK): +
O=C1C(N2CCNCC2)=CC(=O)c2c(O)cccc21 [2b, 5-hydroxy-2-(piperazin-1-yl)naphthalene-1,4-dione]	48.4 µM		8 µg/mL	equal to waldiomycin or even stronger		MIC (B. subtilis 168 strain; summary class, Bacillus subtilis 168): +; increase of MS signal of the collected waldiomycin compared to only waldiomycin ([1]; compound 30 or 100 µM, waldiomycin 5 µM, WalK 1 µM): about twofold; binding to WalK competitive with that of waldiomycin ([1]; in words): not competitive; also recorded: enhanced the binding of waldiomycin to WalK; AS/MS ([1]; summary class, effect on binding of waldiomycin to WalK): −; expression of iseA (iseA (formerly yoeB); exponentially growing cells, subMIC or MIC levels, 5 min, relative to DMSO control): did not change; RT-qPCR (iseA (formerly yoeB)): −; WalK (WalK): +
O=C1C(Cl)=C(N2CCNCC2)C(=O)c2ccccc21 [2c, 2-chloro-3-(piperazin-1-yl)naphthalene-1,4-dione]		did not show any inhibitory activity; also recorded: inactive	8 µg/mL	equal to waldiomycin or even stronger	N.I.	
O=C1C(N2CCNCC2)=C(Cl)C(=O)c2c1cccc2[N+](=O)[O-] [2d, 3-chloro-5-nitro-2-(piperazin-1-yl)naphthalene-1,4-dione]	305 µM		8 µg/mL	equal to waldiomycin or even stronger		
O=C1C(Cl)=C(NCCO)C(=O)c2c(O)ccc(O)c21 [2e, 2-chloro-5,8-dihydroxy-3-((2-hydroxyethyl)amino)naphthalene-1,4-dione]		did not show any inhibitory activity; also recorded: inactive	2 µg/mL	equal to waldiomycin or even stronger	N.I.	
O=C1C(Cl)=C(NCCc2ccc(O)c(O)c2)C(=O)c2c(O)ccc(O)c21 [2f, 2-chloro-3-((3,4-dihydroxyphenethyl)amino)-5,8-dihydroxynaphthalene-1,4-dione]		did not show any inhibitory activity; also recorded: inactive	8 µg/mL	equal to waldiomycin or even stronger	N.I.	
O=C1C(Cl)=C(Nc2cccc(O)c2)C(=O)c2c(O)ccc(O)c21 [2g, 2-chloro-5,8-dihydroxy-3-((3-hydroxyphenyl)amino)naphthalene-1,4-dione]	31.7 µM		1 µg/mL	equal to waldiomycin or even stronger		
O=C1C(Cl)=C(Nc2ccc(Cl)c(O)c2)C(=O)c2c(O)ccc(O)c21 [2i, 2-chloro-3-((4-chloro-3-hydroxyphenyl)amino)-5,8-dihydroxynaphthalene-1,4-dione]		did not show any inhibitory activity; also recorded: inactive		equal to waldiomycin or even stronger		MIC (B. subtilis 168 strain; B. subtilis 168 strain grown in LB broth at 37 °C for 18 h, listed as C00017): 4 µg/mL; IC50 (WalK; listed as C00017): N.I.
O=C1C(Nc2ccc(Cl)c(O)c2)=CC(=O)c2c(O)cccc21 [2j, 2-((4-chloro-3-hydroxyphenyl)amino)-5-hydroxynaphthalene-1,4-dione]	75.1 µM			equal to waldiomycin or even stronger		MIC (B. subtilis 168 strain; [3]): 4 µg/mL
COc1ccc(NC2=C(Cl)C(=O)c3c(O)ccc(O)c3C2=O)cc1 [2k, 2-chloro-5,8-dihydroxy-3-((4-methoxyphenyl)amino)naphthalene-1,4-dione]		did not show any inhibitory activity; also recorded: noninhibitory; also recorded: did not inhibit WalK	>128 µg/mL	no or a very weak antimicrobial activity	N.I.	
O=C(O)c1cc(NC2=C(Cl)C(=O)c3c(O)ccc(O)c3C2=O)ccc1O [2m, 5-((3-chloro-5,8-dihydroxy-1,4-dioxo-1,4-dihydronaphthalen-2-yl)amino)-2-hydroxybenzoic acid]	45 µM	weaker	64 µg/mL	weaker		
O=C(O)c1cc(NC2=C(Cl)C(=O)c3c(cccc3[N+](=O)[O-])C2=O)ccc1O [2n, 5-((3-chloro-5-nitro-1,4-dioxo-1,4-dihydronaphthalen-2-yl)amino)-2-hydroxybenzoic acid]		did not show any inhibitory activity; also recorded: did not inhibit WalK	128 µg/mL	no or a very weak antimicrobial activity	N.I.	
O=C1c2onc(-c3ccccc3)c2C(=O)c2c(O)ccc(O)c21 [3a, 5,8-dihydroxy-3-phenylnaphtho[2,3-d]isoxazole-4,9-dione]	51 µM		0.5 µg/mL	equal to waldiomycin or even stronger		
O=C1c2onc(-c3ccccc3)c2C(=O)c2cccc(O)c21 [3c, 8-hydroxy-3-phenylnaphtho[2,3-d]isoxazole-4,9-dione]		did not show any inhibitory activity		equal to waldiomycin or even stronger	N.I.	MIC (B. subtilis 168 strain; [3]): 0.5 µg/mL
